Counter-ions that a name gives are not always drawn. Like-named read-outs stand apart in the source and are kept apart here. Each block holds one compound with its values, some of them ahead of it.
Legend:
L. majIPCS = biological target: T1, L. majIPCS (Leishmania major, UniProt E9AFX2); assay: inhibition of microsomal enzyme preparation of L. majIPCS; type: biochemical; settings: for inhibition at 20 µM: read-out: LmjIPCS inhibition % at 20 µM ± SD
T1 construct: made in house
T1 sequence (E9AFX2 1-338): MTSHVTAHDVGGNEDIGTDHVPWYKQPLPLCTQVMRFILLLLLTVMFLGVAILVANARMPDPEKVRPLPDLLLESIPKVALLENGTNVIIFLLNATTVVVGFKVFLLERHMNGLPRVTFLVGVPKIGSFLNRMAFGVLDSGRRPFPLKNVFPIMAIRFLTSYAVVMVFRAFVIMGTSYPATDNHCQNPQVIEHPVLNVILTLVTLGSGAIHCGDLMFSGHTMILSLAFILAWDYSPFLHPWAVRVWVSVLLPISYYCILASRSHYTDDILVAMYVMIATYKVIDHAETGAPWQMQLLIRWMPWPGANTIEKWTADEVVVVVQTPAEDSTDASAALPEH
Description: When tested against microsomal enzyme preparations of L. majIPCS[16] (Fig. 2, Table S1 ^†) the comparisons of pyrrolidine, tetrahydrofuran and cyclopentane derivatives 19, 21–23 supported earlier observations that all active compounds retained a basic nitrogen in the head group.[17] In general, whilst enzyme inhibitory activity was retained in a number of these analogues, much lower activity was observed against promastigote parasites. […] Speculating that this lower activity in promastigote parasite assays reflected a (membrane) transport issue, we then explored the corresponding ether derivative 27. Attempts to prepare this by acid catalysed ether formation failed and ultimately this was achieved through displacement of the corresponding benzylic chloride 25 (Scheme 3).
Fig. 2 Activity of a selection of simple amide and triazole linked CF analogues against a microsomal preparation of L. majIPCS and L. major promastigote parasites, respectively.

[1] = tested on: L. major promastigotes (FV1) WT; assay: anti-promastigote assay, L. major (resazurin); type: cell-based; settings: Leishmania major
Description: 4.2.3.1. Anti-promastigote assays
L. major promastigotes (FV1) WT, PX and Δ LCB2 in Schneider’s insect medium (100 μL at 1 × 106 mL−1) were incubated in 96-well plates with compounds in triplicate (amphotericin B and cycloheximide were used as positive controls, and untreated parasites with 1% DMSO as a negative control) at 26 °C for 48 h.
Resazurin Solution (10 μL) was then added and the plate incubated at 26 °C for 4 h prior to measurement using a fluorescence plate reader (555 - 585 nm). EC50 values were calculated using sigmoidal regression analysis (GraphPad Prism). […]
(§1) well-1 in a 24-well plate with round cover slips and incubated for 24 h at 37 °C and 5% CO2. […]

[2] = tested on: L. major PX promastigotes; assay: on-target growth inhibition, add-back cell line (PX); type: cell-based, Leishmania major
[3] = tested on: panel of neurotransmitter receptors; assay: radioligand displacement assay, whole panel; type: binding, human
Description: 4.2.3.6. Radioligand Binding Assay (Supplemental Figure S3)
These assays were run by Eurofins under contract to LifeArc FR095-0011887. A representative protocol describing the human histamine H2 receptor (antagonist radioligand) assay is shown below.12 Cell membrane homogenates (24 µg protein) are incubated for 120 min at 22°C with 0.075 nM [125I]APT in the absence or presence of the test compound in a buffer containing 50 mM Na2HPO4/KH2PO4 (pH […]
7.4) and 0.05% BSA. […] Following

[4] = tested on: L. amazonensis GFP promastigotes; assay: mouse model of L. amazonensis infection (ear, IL dosing); type: in vivo, BALB/c mice; settings: 1.2 mg kg^−1 IL twice a week for 4 weeks
Description: Consequently, we used IL dosing for this experiment. To enable direct comparison with CF, the same treatment regimen (dose of 1.2 mg kg^−1via IL injection twice a week for 4 weeks starting on DPI) was used for both compounds.
A Weight variation of mice during 28 days of treatment. B Progression of lesion thickness over 28 day treatment period. C Representative photographs of the infected ear for each group taken after completion of treatment, D parasite burden was evaluated by LDA on 36 days post infection. […]
In vivo assays were conducted as previously reported 1. Two month old BALB/c female mice, weighing 20 - 25 g and of approximately the same age were used for the study. For infection of mice, stationary phase GFP L. amazonensis promastigotes were collected, washed and suspended in sterile PBS. A volume of 10 μl of sterile PBS containing 2 x 10^6 parasites was injected into the right ear. […]
Infected ear thicknesses were measured once or twice a week with a caliper gauge, and the lesion sizes were expressed as the difference between the thickness of infected and non-infected ear. On day 41 animals were sacrificed and the fluorescence measured (485 - 528 nm) and parasite load quantified using a limiting dilution assay (LDA).
Data on lesion progression were analysed for statistical significance by using the Dunnett test as part of the one-way ANOVA (GraphPad Prism 8 software). […]

[5] = tested on: L. amazonensis promastigotes; assay: anti-promastigote assay, L. amazonensis (resazurin); type: cell-based; settings: Leishmania amazonensis
Description: 4.2.3.1. Anti-promastigote assays […]
Protocol 1: L. amazonensis promastigotes in Medium 199 (100 μL at 5 × 105 mL−1) were incubated in 96-well plates with compounds in triplicate (amphotericin B was used as a positive control, and untreated parasites with DMSO as a negative control) at 26 °C for 72 h. Resazurin Solution (10 μL) was then added and the plate incubated at 26 °C for 4 h prior to measurement using a fluorescence plate reader (555 - 585 nm). EC50 values were calculated using sigmoidal regression analysis (GraphPad Prism).
Protocol 2: Same procedure as above with the modification of a 48 h incubation time as opposed to 72 h and Leishmania amazonensis (MHOM/Br/75/JOSEFA) in Schneider’s insect medium in the place of Leishmania amazonensis (MHOM/Br/75/JOSEFA) in Medium 199. […]
as §1

[6] = 48 h, read-out: L. major promastigote EC50
[7] = read-out: L. amaz promastigote EC50
[8] = promastigotes, 48 h, read-out: L. major promastigote EC50
[9] = promastigote parasites (Table 1), read-out: L.mj EC50
[10] = promastigote parasites (Table 1), read-out: L.amaz EC50

SMILES: Clc1ccc(C(OCCC2CCCN2)c2ccccc2)cc1 (stereo not drawn) [compound 7]
IC50 (L. majIPCS): 6.26 µM | inhibition at 20 µM (L. majIPCS): 78.1 ± 12.5% | EC50 [1, 6]: 4.1 µM

SMILES: CN1CCC[C@H]1CCOC(c1ccccc1)c1ccc(Cl)cc1 (stereo partly drawn) [compound 9]
IC50 (L. majIPCS): 4.45 µM | inhibition at 20 µM (L. majIPCS): 81.2 ± 10.6% | EC50 [1, 6]: 1.69 µM

SMILES: CN1CCC[C@@H]1CCO[C@](C)(c1ccccc1)c1ccc(Cl)cc1 [1a, clemastine fumarate, reference compound]
sensitivity in the add-back cell line (PX) [2]: Sensitivity was restored | binding profile across receptor panel [3]: activity against a broad representation of receptor sub-types | lesion growth trends ([4]; 35 days post-infection): similar | parasitaemia (parasite burden by LDA) versus untreated group ([4]; LDA 36 days post infection): statistically significant reduction

SMILES: CN1CCC[C@@H]1CCOC(c1ccccc1)c1ccccc1 [compound 28]
EC50 [1, 6]: 8.44 µM | EC50 [5, 7]: 1.17 µM

SMILES: CN1CCC[C@@H]1CCO[C@@H](c1ccccc1)c1ccc(Cl)cc1 [compound 37]
EC50 [1, 6]: 1.33 µM | EC50 [5, 7]: 1.4 µM

IC50 (L. majIPCS): 6.9 µM | inhibition at 20 µM (L. majIPCS; 20 µM, microsomal preparation): 81.2 ± 1.3%
SMILES: O=C(NCC1CCCN1)C(c1ccccc1)c1ccc(Cl)cc1 (stereo not drawn) [compound 19]
EC50 [1, 8]: > 33 µM

SMILES: CN1CCC[C@@H]1CCOC(c1ccccc1)c1ccc(F)cc1 (stereo partly drawn) [compound 32]
EC50 [1, 6]: 2.25 µM | EC50 [5, 7]: 1.62 µM

SMILES: C[C@H]1CCCN1CCCOC(c1ccccc1)c1ccc(Cl)cc1 (stereo partly drawn) [38h]
EC50 [1, 9]: 0.09 µM

inhibition at 20 µM (L. majIPCS; 20 µM, microsomal preparation): -5.4 ± 2.3%
SMILES: O=C(CC1CCCC1)NC(c1ccccc1)c1ccc(Cl)cc1 (stereo not drawn) [compound 23]

IC50 (L. majIPCS): 4.72 µM
SMILES: CN(C)CCn1ncc2ccc(COC(c3ccccc3)c3ccc(Cl)cc3)cc21 (stereo not drawn) [compound 27]
EC50 [1, 8]: > 5 µM

SMILES: C[C@@H]1CCCN1CCOC(c1ccccc1)c1ccc(Cl)cc1 (stereo partly drawn) [38b]
EC50 ([1]; read-out: L.mj EC50): 2.65 µM | EC50 ([5]; read-out: L.amaz EC50): 4.1 µM

IC50 (L. majIPCS): 14.5 µM | inhibition at 20 µM (L. majIPCS; 20 µM, microsomal preparation): 60.6 ± 9.2%
SMILES: CN1CCC[C@H]1c1cn(C(c2ccccc2)c2ccc(Cl)cc2)nn1 (stereo partly drawn) [14a]
EC50 [1, 8]: > 33 µM

SMILES: CN1CCC[C@@H]1CCOC(c1ccc(F)cc1)c1ccc(F)cc1 [compound 33]
EC50 [1, 6]: 2.87 µM | EC50 [5, 7]: 2.74 µM

SMILES: C[C@@H]1CCCN1CCCO[C@H](c1ccccc1)c1ccc(Cl)cc1 [38m]
EC50 [1, 9]: 0.031 µM | EC50 [5, 10]: 0.042 µM

SMILES: CC1(C)CCCN1CCCO[C@H](c1ccccc1)c1ccc(Cl)cc1 [38n]
EC50 [1, 9]: 0.027 µM | EC50 [5, 10]: 0.017 µM

SMILES: COC(=O)[C@H]1CCCN1CCOC(c1ccccc1)c1ccc(Cl)cc1 (stereo partly drawn) [38c]
EC50 ([1]; read-out: L.mj EC50): 23.8 µM | EC50 ([5]; read-out: L.amaz EC50): 17.4 µM

SMILES: COc1cccc(C(OCC[C@H]2CCCN2C)c2ccccc2)c1 (stereo partly drawn) [compound 31]
EC50 [1, 6]: 8.44 µM | EC50 [5, 7]: 0.63 µM

SMILES: CN1CCC[C@@H]1CCO[C@H](c1ccccc1)c1ccc(Cl)cc1 [compound 35]
EC50 [1, 6]: 0.13 µM | EC50 [5, 7]: 0.101 µM | binding profile across receptor panel [3]: activity against a broad representation of receptor sub-types

SMILES: C[C@H]1CCCN1CCOC(c1ccccc1)c1ccc(Cl)cc1 (stereo partly drawn) [38a]
EC50 ([1]; read-out: L.mj EC50): 2.05 µM | EC50 ([5]; read-out: L.amaz EC50): 3.4 µM

IC50 (L. majIPCS): 6.95 µM | inhibition at 20 µM (L. majIPCS; 20 µM, microsomal preparation): 82.7%
SMILES: O=C(CC1CCCN1)NC(c1ccccc1)c1ccc(Cl)cc1 (stereo not drawn) [compound 21]
EC50 [1, 8]: > 33 µM

SMILES: COc1ccc(C(OCC[C@H]2CCCN2C)c2ccccc2)cc1 (stereo partly drawn) [compound 30]
EC50 [1, 6]: 6.83 µM | EC50 [5, 7]: 0.5 µM

SMILES: OC[C@H]1CCCN1CCOC(c1ccccc1)c1ccc(Cl)cc1 (stereo partly drawn) [38d]
EC50 ([1]; read-out: L.mj EC50): 5.88 µM | EC50 ([5]; read-out: L.amaz EC50): 3.2 µM

SMILES: COC[C@H]1CCCN1CCOC(c1ccccc1)c1ccc(Cl)cc1 (stereo partly drawn) [38e]
EC50 ([1]; read-out: L.mj EC50): 14.4 µM | EC50 ([5]; read-out: L.amaz EC50): 12.3 µM

inhibition at 20 µM (L. majIPCS; 20 µM, microsomal preparation): 2.9 ± 1.4%
SMILES: O=C(NCC1CCCO1)C(c1ccccc1)c1ccc(Cl)cc1 (stereo not drawn) [compound 22]

SMILES: C[C@@H]1CCCN1CCO[C@H](c1ccccc1)c1ccc(Cl)cc1 [38k]
EC50 ([1]; read-out: L.mj EC50): 1.7 µM | EC50 ([5]; read-out: L.amaz EC50): 3.2 µM

IC50 (L. majIPCS): 2.41 µM | inhibition at 20 µM (L. majIPCS; 20 µM, microsomal preparation): 90.2 ± 2.4%
SMILES: CN(C)CCn1ncc2ccc(NC(=O)C(c3ccccc3)c3ccc(Cl)cc3)cc21 (stereo not drawn) [compound 24]
EC50 [1, 8]: > 10 µM

SMILES: CN1CCC[C@@H]1CCOC(c1ccccc1)c1ccc(Cl)cc1 (stereo partly drawn) [compound 10]
IC50 (L. majIPCS): 4.13 µM | inhibition at 20 µM (L. majIPCS): 78.1 ± 9.7% | EC50 [1, 6]: 0.78 µM

SMILES: CN1CCC[C@@H]1CCOC(c1ccccc1)c1ccc(Br)cc1 (stereo partly drawn) [compound 29]
IC50 (L. majIPCS): 3.21 µM | EC50 [1, 6]: 1.36 µM

SMILES: C[C@H]1CCCN1CCO[C@@H](c1ccccc1)c1ccc(Cl)cc1 [38i]
EC50 ([1]; read-out: L.mj EC50): 7.05 µM

SMILES: C[C@@H]1CCCN1CCO[C@@H](c1ccccc1)c1ccc(Cl)cc1 [38j]
EC50 ([1]; read-out: L.mj EC50): 11.5 µM

SMILES: C[C@H]1CCCN1CCCCOC(c1ccccc1)c1ccc(Cl)cc1 (stereo partly drawn) [38g]
EC50 [1, 9]: 1.21 µM

SMILES: Clc1ccc(C(OCCN2CCCC2)c2ccccc2)cc1 (stereo not drawn) [38f]
EC50 ([5]; read-out: L.amaz EC50): 3.27 µM

SMILES: Clc1ccc([C@H](OCCCN2CCCC2)c2ccccc2)cc1 [38o]
EC50 [1, 9]: 0.08 µM | EC50 [5, 10]: 0.1 µM

IC50 (L. majIPCS): 8.49 µM | inhibition at 20 µM (L. majIPCS; 20 µM, microsomal preparation): 71 ± 9.7%
SMILES: CN1CCCC1c1cn(C(c2ccccc2)c2ccc(Cl)cc2)nn1 (stereo not drawn) [14b]
EC50 [1, 8]: > 33 µM

Reference: PMC11862611 (RSC Medicinal Chemistry, 2025)
